From paper PMC5608804, “Stepwise Evolution Improves Identification of Diverse Peptides Binding to a Protein Target” (Scientific Reports, 2017)

Biological target: T1, streptavidin (Streptomyces avidinii, UniProt P22629)
T1 construct: purchased GE Healthcare (Little Chalfont, UK)
Assay: Cy5-streptavidin binding on HotSpot discovery array, 5-mer L-peptide library
Settings: 5-mer L-peptide library array, Cy5-streptavidin; from average of three arrays
How it was run: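 Array of 2,476,099 5-mer peptides (19 amino acids, no cysteine) with Gly-Ser linkers, probed overnight at 4 °C with 0.5 µg/ml Cy5-streptavidin in Tris pH 7.4 buffer containing casein or BSA plus Tween-20. Cy5 fluorescence read at 635 nm; peptides selected by signal-to-background >4 across three arrays.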

T1 sequence (P22629 25-183): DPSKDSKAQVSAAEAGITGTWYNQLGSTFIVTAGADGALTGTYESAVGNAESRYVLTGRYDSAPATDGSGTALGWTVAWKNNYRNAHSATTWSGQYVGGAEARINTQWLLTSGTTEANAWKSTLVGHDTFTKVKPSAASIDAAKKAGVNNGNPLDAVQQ

Substance | S/B (signal to background ratio)
IPHPM | 35.9
SSHPQ | 134.8
HPQYG | 55.1
ELHPQ | 56.4
MMHPM | 48.8
FRHPQ | 211.5
ALHPM | 39.7
WPHPQ | 191.6
NHPQA | 121.8
WHPQS | 129.8
IFHPQ | 166.8
FDHPQ | 121.8
HPQAF | 40.6
TEHPQ | 57.0
YTHPQ | 174.6
FQHPQ | 161.2
PQHPQ | 136.1
TYHPM | 50.6
YHPMV | 20.3
RLHPQ | 137.3
LHPQM | 29.4
TTHPM | 29.8
KYHPQ | 140.2
TMHPM | 25.5

Substance | S/B (signal to background ratio)
HPQVR | 28.4
RSHPQ | 137.5
DHPMG | 29.8
HPQNL | 57.7
HPMFS | 20.6
PAHPQ | 124.5
EHHPM | 31.0
NHPQM | 39.3
HPMAP | 37.9
WHPQA | 172.2
SLHPQ | 133.4
ISHPQ | 142.0
SNHPM | 54.1
KHPQF | 52.9
WRHPM | 120.0
WLHPQ | 190.9
HPQFG | 141.0
HPQVD | 33.5
SHHPQ | 155.1
DEHPQ | 26.0
RYHPQ | 175.9
LWHPQ | 177.2
WHHPQ | 200.9
WHPQF | 132.3

Substance | S/B (signal to background ratio)
LHHPQ | 188.8
MGHPQ | 175.3
YMHPQ | 181.7
LHPMS | 22.2
EVHPQ | 44.3
HPQGY | 53.6
EHPQV | 41.0
RNHPQ | 136.2
EWHPM | 38.1
HHPMY | 20.0
IHPQQ | 32.5
EDHPQ | 34.6
NPHPM | 40.3
FKHPQ | 123.2
TNHPQ | 135.8
HHPQI | 19.7
IHPQA | 150.7
GAHPM | 34.1
LHPQH | 38.5
MHPQN | 120.0
WHPQY | 53.1
FHPQN | 168.8
YHPQG | 153.3

Same assay, conditions: 5-mer L-peptide library array, Cy5-streptavidin; from the average of three arrays

Substance | S/B (signal to background ratio)
RFHPM | 59.2
ANHPQ | 115.8
YQHPM | 84.6
HPQFN | 113.3
YLHPM | 70.7
DAHPQ | 62.6
NHPQF | 99.9
HPQFY | 70.7
KPHPQ | 117.2
TVHPQ | 96.5
FLHPM | 84.7
SIHPQ | 118.3
MYHPM | 89.3
HPQVY | 64.1
GKHPQ | 73.5
VQHPQ | 114.0
HHPQF | 110.3
HPQNF | 94.0
HHPQG | 108.6

Substance | S/B (signal to background ratio)
HPMGG | 60.6
GHPQV | 97.6
HPQGD | 62.3
YRHPM | 71.5
KHPQG | 73.1
HPQNV | 84.4
YHPQM | 77.9
MFHPM | 85.4
THPQV | 88.9
HPQNT | 67.6
HRHPM | 61.8
FHPQV | 107.2
KHPQN | 64.6
YHPQF | 105.0
RRHPQ | 103.0
HPQNA | 108.8
VRHPM | 64.0
KHHPQ | 96.3

Same assay, conditions: 5-mer L-peptide library, from the average of three arrays

Substance | S/B (signal to background ratio)
FHPQE | 5.1
RHPQL | 4.6
HPAFQ | 4.5
GPMPD | 4.4
HPQSK | 4.7
HPQRI | 5.0
HPMSR | 4.4
HPMQH | 4.5
HPWRH | 5.0
FHPMW | 5.1
FMPHP | 5.0
YHPPQ | 4.7
HPWRT | 4.4
KHPMH | 5.1
HGFPF | 4.7
WHMPQ | 4.6

Same assay, conditions: average of three arrays, L-peptide 5-mer library

Substance | S/B (signal to background ratio)
LSAYH [L-amino acid 5-mer array peptide] | 17.7
LGRFH [L-amino acid 5-mer array peptide] | 8.7
FDKWL [L-amino acid 5-mer array peptide] | 15.9
MLAHF [L-amino acid 5-mer array peptide] | 7.2
PSWAH [L-amino acid 5-mer array peptide] | 7.3
HGFPF | 4.7

Same assay, conditions: signal to background ratio; 5-mer L-peptide library array, Cy5-streptavidin

Substance | S/B
FHPQP | 6.3
LSAYH [L-amino acid 5-mer array peptide] | 17.7
HPQDG | 15.1
PMPDE | 6.3
HPQKG | 18.2
PHPQK | 14.7
HPMFH | 6.8
HPMYF | 12.1
YHPMF | 13.4
LGRFH [L-amino acid 5-mer array peptide] | 8.7
AHPQK | 12.1
HPQHL | 9.2
VHPMF | 9.9
HPQIS | 8.8
PHPMY | 12.1
WHPDW | 5.3
HPQYW | 5.7
LHPMI | 5.3
HPMNM | 9.1

Substance | S/B
HPMSA | 8.0
PHPMH | 8.8
HPMTP | 5.6
HPMFL | 5.4
LHPMM | 5.2
HPMYP | 15.8
LHPQT | 15.6
HPQPD | 6.3
THPMH | 9.5
FDKWL [L-amino acid 5-mer array peptide] | 15.9
PMPDD | 8.2
HPQQQ | 10.8
MLAHF [L-amino acid 5-mer array peptide] | 7.2
HPQPN | 5.5
PSWAH [L-amino acid 5-mer array peptide] | 7.3
HPMYS | 8.6
HPTPW | 15.1
DHPMM | 5.6
